From article PMC5578075 (International Journal of Molecular Sciences, 2017) come the findings set out here.

The target in one experiment is T1, acetylcholinesterase from Electrophorus electricus (electric eel) (Electrophorus electricus, UniProt O42275).
T1 construct: purchased Sigma-Aldrich C2888
T1 sequence (O42275 24-633): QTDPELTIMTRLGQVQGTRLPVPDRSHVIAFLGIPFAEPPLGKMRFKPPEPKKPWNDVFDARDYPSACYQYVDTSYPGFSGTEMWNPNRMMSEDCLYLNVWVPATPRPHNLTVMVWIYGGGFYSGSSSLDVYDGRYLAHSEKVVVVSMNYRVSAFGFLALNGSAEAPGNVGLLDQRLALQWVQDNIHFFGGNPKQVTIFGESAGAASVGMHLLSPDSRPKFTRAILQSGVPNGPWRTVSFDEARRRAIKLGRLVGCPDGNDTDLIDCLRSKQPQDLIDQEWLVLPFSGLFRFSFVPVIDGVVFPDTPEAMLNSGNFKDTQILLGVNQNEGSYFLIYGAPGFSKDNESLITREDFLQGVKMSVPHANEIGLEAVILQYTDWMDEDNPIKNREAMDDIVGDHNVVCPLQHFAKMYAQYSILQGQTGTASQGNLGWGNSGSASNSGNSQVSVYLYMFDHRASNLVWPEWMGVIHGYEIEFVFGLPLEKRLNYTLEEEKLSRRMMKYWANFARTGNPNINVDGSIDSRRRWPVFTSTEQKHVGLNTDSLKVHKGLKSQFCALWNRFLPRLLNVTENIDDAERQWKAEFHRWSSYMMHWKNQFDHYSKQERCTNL
The experiment can be described thus: biochemical. The note with it: AChA, IC50 (anti-acetylcholinesterase activity), total extracts of C. officinalis flowers; mean ± SD of five experiments. The procedure:
For the further detailed studies, samples of the individual flavonoids previously isolated from C. officinalis flowers were used. The acetylcholinesterase inhibition assay was performed using a spectrophotometric method. […] Additionally minor flavonoids of C. officinalis flowers were included for analysis such as 3-O-(2′′-acetyl)-glucosides, 3-O-(2′′,6′′-di-acetyl)-glucosides, 3-O-(3′′-rhamnosyl)-glucosides, 3-O-(4′′-rhamnosyl)-glucosides and 3-O-rhamnosides (Figure 3).
The acetylcholinesterase inhibition assay was performed using a spectrophotometric microplate assay. The reaction mixture consisted of 235.7 µL of 0.1 M phosphate buffer pH 7.4, 20 µL of a solution of acetylcholinesterase (final concentration 0.1 U/mL in 0.1 M phosphate buffer pH 7.4), 2.7 µL of test compound or plant extract solutions in dimethyl sulfoxide (DMSO). The controls contained the corresponding volume of DMSO of test compound solutions. The enzymatic reaction was initiated by the addition of 1.6 µL of α-naphthyl acetate solution in DMSO. After mixing for 90 s and incubation at 25 °C for 90 s, the reaction was stopped with 20 µL of a 5% solution of sodium dodecyl sulfate (SDS) in water. The color was developed with 20 µL of Fast Blue B salt solution (final concentration 0.17 mM in water). The method was realized in 96-well plates. The microplate was read by a Bio-Rad microplate reader Model 3550 UV. Enzyme activity and inhibition were quantified by determination of the absorbance at 600 nm after the formation of the purple-colored diazonium dye as a percentage. […] The percentage of inhibition was calculated relative to a control sample, for which the anti-acetylcholinesterase activity was assessed under identical conditions, but in the absence of the test compound, using the expression:% Inhibition = {[(ACE − AC) − (ATE − AT)]/(ACE − AC)} × 100% where ACE is the absorbance at 600 nm of the control sample with enzyme; AC is the absorbance at 600 nm of the control sample without enzyme; ATE is the absorbance at 600 nm of the test compound (or plant extract) with enzyme; AT is the absorbance at 600 nm of the test compound (or plant extract) without enzyme.
In turn, `CN(C)C(=O)Oc1cccc([N+](C)(C)C)c1` [neostigmine, neostigmine bromide, reference compound] registered an IC50 of 3.36 µM.

Still in this experiment, the particulars now being: Anti-acetylcholinesterase activity, IC50, individual flavonoids; mean ± SD of three experiments.
For `C[C@@H]1O[C@@H](OC[C@H]2O[C@@H](Oc3c(-c4ccc(O)c(O)c4)oc4cc(O)cc(O)c4c3=O)[C@H](O)[C@@H](O)[C@@H]2O)[C@H](O)[C@H](O)[C@H]1O` [Quercetin 3-O-(6″-Rhap)-Glcp, quercetin-3-O-rutinoside], the IC50 was determined as 72.1 ± 2.04 µM.

`COc1cc(-c2oc3cc(O)cc(O)c3c(=O)c2O)ccc1O` [Isorhamnetin, 3,5,7,4′-tetrahydroxy-3′-methoxyflavone]: inhibition was half-maximal at 24.2 ± 0.74 µM (IC50).

The molecule `CN(C)C(=O)Oc1cccc([N+](C)(C)C)c1` [neostigmine, neostigmine bromide, reference compound] came in with an IC50 of 3.37 µM.

Molecule `O=c1c(O[C@@H]2O[C@H](CO)[C@@H](O)[C@H](O)[C@H]2O)c(-c2ccc(O)c(O)c2)oc2cc(O)cc(O)c12` [Quercetin 3-O-Glcp, quercetin-3-O-glucoside] came in with an IC50 of 70.1 ± 1.82 µM.

Take `CC1OC(Oc2c(-c3ccc(O)c(O)c3)oc3cc(O)cc(O)c3c2=O)C(O)C(O)C1O` (stereo not shown) [Quercetin 3-O-Rhap, quercetin-3-O-rhamnoside]: 48.8 ± 1.26 µM corresponded to half-maximal inhibition (IC50).

Still in this experiment, the particulars now being: individual flavonoids; mean ± SD of three experiments; read-out: Anti-acetylcholinesterase activity, IC50.
As for `CC(=O)OCC1OC(Oc2c(-c3ccc(O)c(O)c3)oc3cc(O)cc(O)c3c2=O)C(O)C(O)C1O` (stereo not shown) [Quercetin 3-O-(6″-Ac)-Glcp, quercetin-3-O-(6′′-acetyl)-glucoside], the IC50 came out at 45.2 ± 1.12 µM.

For `CC(=O)OCC1OC(Oc2c(-c3ccc(O)c(O)c3)oc3cc(O)cc(O)c3c2=O)C(OC(C)=O)C(O)C1O` (stereo not shown) [Quercetin 3-O-(2″,6″-di-Ac)-Glcp, quercetin-3-O-(2′′,6′′-di-acetyl)-glucoside], the IC50 was 36.5 ± 1.02 µM.

Consider `CC1OC(OCC2OC(Oc3c(-c4ccc(O)c(O)c4)oc4cc(O)cc(O)c4c3=O)C(OC3OC(C)C(O)C(O)C3O)C(O)C2O)C(O)C(O)C1O` (stereo not shown) [Quercetin 3-O-(2″,6″-di-Rhap)-Glcp, quercetin-3-O-(2′′,6′′-di-rhamnosyl)-glucoside], for which the IC50 stood at 94.9 ± 2.65 µM.

`COc1cc(-c2oc3cc(O)cc(O)c3c(=O)c2OC2OC(C)C(O)C(O)C2O)ccc1O` (stereo not shown) [Isorhamnetin 3-O-Rhap, isorhamnetin-3-O-rhamnoside]: the IC50 turned out to be 74 ± 2.14 µM.

With `CC1OC(OC2C(O)C(CO)OC(Oc3c(-c4ccc(O)c(O)c4)oc4cc(O)cc(O)c4c3=O)C2O)C(O)C(O)C1O` (stereo not shown) [Quercetin 3-O-(3″-Rhap)-Glcp, quercetin-3-O-(3′′-rhamnosyl)-glucoside], the IC50 worked out at 69.1 ± 1.84 µM.

In the case of `CC1OC(OC2C(Oc3c(-c4ccc(O)c(O)c4)oc4cc(O)cc(O)c4c3=O)OC(C)C(O)C(O)C2O)C(O)C(O)C1O` (stereo not shown) [Quercetin 3-O-(2″-Rhap)-Rhap, quercetin-3-O-(2′′-rhamnosyl)-rhamnoside], the 50% inhibitory concentration (IC50) was 67.9 ± 1.76 µM.

On to `COc1cc(-c2oc3cc(O)cc(O)c3c(=O)c2OC2OC(COC3OC(C)C(O)C(O)C3O)C(O)C(O)C2OC2OC(C)C(O)C(O)C2O)ccc1O` (stereo not shown) [Isorhamnetin 3-O-(2″,6″-di-Rhap)-Glcp, isorhamnetin-3-O-(2′′,6′′-di-rhamnosyl)-glucoside], for which the IC50 came to 98.5 ± 3.04 µM.

As for `COc1cc(-c2oc3cc(O)cc(O)c3c(=O)c2O[C@@H]2O[C@H](CO[C@@H]3O[C@@H](C)[C@H](O)[C@@H](O)[C@H]3O)[C@@H](O)[C@H](O)[C@H]2O)ccc1O` [Isorhamnetin 3-O-(6″-Rhap)-Glcp, isorhamnetin-3-O-rutinoside], the half-maximal inhibitory concentration (IC50) was 97.3 ± 2.91 µM.

On to `CC1OC(OC2C(Oc3c(-c4ccc(O)c(O)c4)oc4cc(O)cc(O)c4c3=O)OC(CO)C(O)C2O)C(O)C(O)C1O` (stereo not shown) [Quercetin 3-O-(2″-Rhap)-Glcp, quercetin-3-O-(2′′-rhamnosyl)-glucoside], for which the IC50 amounted to 71.9 ± 1.94 µM.

For `CC(=O)OC1C(Oc2c(-c3ccc(O)c(O)c3)oc3cc(O)cc(O)c3c2=O)OC(CO)C(O)C1O` (stereo not shown) [Quercetin 3-O-(2″-Ac)-Glcp, quercetin-3-O-(2′′-acetyl)-glucoside], the IC50 stood at 48 ± 1.2 µM.

With `COc1cc(-c2oc3cc(O)cc(O)c3c(=O)c2OC2OC(COC(C)=O)C(O)C(O)C2OC(C)=O)ccc1O` (stereo not shown) [Isorhamnetin 3-O-(2″,6″-di-Ac)-Glcp, isorhamnetin-3-O-(2′′,6′′-di-acetyl)-glucoside], the IC50 was 51.3 ± 1.53 µM.

For `COc1cc(-c2oc3cc(O)cc(O)c3c(=O)c2OC2OC(CO)C(O)C(O)C2OC2OC(C)C(O)C(O)C2O)ccc1O` (stereo not shown) [Isorhamnetin 3-O-(2″-Rhap)-Glcp, isorhamnetin-3-O-(2′′-rhamnosyl)-glucoside], the IC50 was 94.3 ± 2.82 µM.

Consider `COc1cc(-c2oc3cc(O)cc(O)c3c(=O)c2OC2OC(CO)C(O)C(O)C2O)ccc1O` (stereo not shown) [Isorhamnetin 3-O-Glcp, isorhamnetin-3-O-glucoside], for which the 50% inhibitory concentration (IC50) turned out to be 89 ± 2.49 µM.

With `CC1OC(OC2C(CO)OC(Oc3c(-c4ccc(O)c(O)c4)oc4cc(O)cc(O)c4c3=O)C(O)C2O)C(O)C(O)C1O` (stereo not shown) [Quercetin 3-O-(4″-Rhap)-Glcp, quercetin-3-O-(4′′-rhamnosyl)-glucoside], the IC50 was 70.3 ± 1.9 µM.

In the case of `COc1cc(-c2oc3cc(O)cc(O)c3c(=O)c2OC2OC(CO)C(O)C(O)C2OC(C)=O)ccc1O` (stereo not shown) [Isorhamnetin 3-O-(2″-Ac)-Glcp, isorhamnetin-3-O-(2′′-acetyl)-glucoside], the IC50 amounted to 70.9 ± 1.84 µM.

Consider `COc1cc(-c2oc3cc(O)cc(O)c3c(=O)c2OC2OC(CO)C(OC3OC(C)C(O)C(O)C3O)C(O)C2O)ccc1O` (stereo not shown) [Isorhamnetin 3-O-(4″-Rhap)-Glcp, isorhamnetin-3-O-(4′′-rhamnosyl)-glucoside], for which the IC50 was 92.1 ± 2.85 µM.

Turning to `COc1cc(-c2oc3cc(O)cc(O)c3c(=O)c2OC2OC(CO)C(O)C(OC3OC(C)C(O)C(O)C3O)C2O)ccc1O` (stereo not shown) [Isorhamnetin 3-O-(3″-Rhap)-Glcp, isorhamnetin-3-O-(3′′-rhamnosyl)-glucoside], the IC50 was 91.2 ± 2.73 µM.

In the case of `COc1cc(-c2oc3cc(O)cc(O)c3c(=O)c2OC2OC(COC(C)=O)C(O)C(O)C2O)ccc1O` (stereo not shown) [Isorhamnetin 3-O-(6″-Ac)-Glcp, isorhamnetin-3-O-(6′′-acetyl)-glucoside], the IC50 was 68.2 ± 1.71 µM.

The experiment is the same for the next values; noted with them: negative control.
Regarding `[Cl-].[Na+]` [NaCl, reference compound], the “Anti-acetylcholinesterase activity of the negative control, in words” value was “inactive”.

What is called IC50 is the concentration that gives 50% inhibition.
